Measured values reported in patent US5639887A, “MDR reversal agents” (priority 1995, dated 1997).
Values after ≈ are worked out from the molar mass of the structure shown.

Experiments:
[1] = tested on: bisantrene-resistant human ovarian carcinoma cells S1-B1-20 (OVCAR-3 subclone); experiment: Screening assay for reversal agents: Difference Score with/without 20 μM bisantrene; format: cell-based; conditions: alone vs with 20 μM bisantrene, 3 days, difference in % cell survival; for Difference Score at 1 microM: test agent 1 microM; for Difference Score at 10 microM: test agent 10 microM; for Difference Score at 20 microM: test agent 20 microM
Protocol: Such cells are sorted by a fluorescent activated cell sorter (FACS; Becton Dickinson Model 440).
Cells, prepared by trypsinization, are plated at 20,000 cells/well in media with and without bisantrene. Then, test agents at varying concentrations are added to the cells. […] Completed plates are incubated for 3 days at 37° C. in a moisturized 7% CO2 atmosphere. […] Dye content/well is read at 540 nm in a microtiter reader. Values are electronically processed, % cell survival compared to untreated cells is computed, and the results are expressed as the difference between these values. Experiments are run in the presence of the test agent alone and the test agent in combination with 20 μM bisantrene. The Difference Score between those two experiments is reported below for 3 different concentrations of test agent.

[2] = Limit of solubility of bisantrene; format: physicochemical; conditions: cell culture medium; cell culture maintenance
[3] = tested on: multiple drug resistance tumor cells; conditions: background, resensitizing agents for treatment of cancer; cited from earlier work

Compound	Difference Score at 1 microM [1]	Difference Score at 10 microM [1]	Difference Score at 20 microM [1]	solubility [2]	toxic side effects in the clinic [3]
2-[7-(4-Fluorophenyl)-7-[(4-methylphenyl)thio]heptyl]-1,2,3,4-tetrahydro-6,7-isoquinoline [Example 95]	28	71	57	–	–
COc1ccc(C(C#N)(CCCCCN2Cc3cc(OC)c(OC)cc3C2)SC2CCCCC2)cc1OC (stereo not drawn) [Example 86, α-(Cyclohexylthio)-α-(3,4-dimethoxyphenyl)-1,3-dihydro5,6-dimethoxy-2(1H)-isoindoleheptane nitrile]	83	77	29	–	–
COc1ccc(C(C#N)(CCCCCN2Cc3cc(OC)c(OC)cc3C2)SC2CCCCC2)cc1OC.Cl (stereo not drawn) [Example 120, α-(Cyclohexylthio)-α-(3,4-dimethoxyphenyl)-1,3-dihydro 5,6-dimethoxy-2(1H)-isoindoleheptanenitrile hydrochloride]	83	59	1	–	–
C(=N\NC1=NCCN1)/c1c2ccccc2c(/C=N/NC2=NCCN2)c2ccccc12 [bisantrene]	–	–	–	20 µM (≈ 7.97 µg/mL)	–
CN1CCN(CCCN2c3ccccc3Sc3ccc(C(F)(F)F)cc32)CC1 [trifluoroperizine]	–	–	–	–	limited by toxic side effects
